In assay [1] the test system is HS-PSS. The assay is described as follows: drug sensitivity score (DSS, CellTiter-Glo viability, 72 h) (DSS (dimensionless)); higher = more sensitive; extreme values may be limits of the assay. The essentials:
(§1)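 After seeding 750–1000 cells per well of MPNST cell lines or primary human Schwann cells into 384-well plates preprinted with each compound at five concentrations in 10-fold steps, plates were kept 72 h at 37 °C, 5% CO2. Viability was read as CellTiter-Glo ATP luminescence relative to vehicle and positive-control wells, with duplicates averaged where present. The data were fitted with four-parameter logistic models. Drug sensitivity score and relative IC50, censored at the top concentration, derive from the fits, and percent inhibition refers to the top concentration.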
(In general: Cellular ATP, detected with luciferase, serves as a proxy for viable cell number.)

Assay [2] has as its system HS-Sch-2. The assay is described as above. A digest of the protocol: as §1
In assay [3] the test system is HSC1 (primary human Schwann cells). The assay is described as above. The essentials:
as §1

For assay [4], the system named is HSC2 (primary human Schwann cells). The assay is described as above. A digest of the protocol: as §1
Assay [5] relates to S1507-2. The assay is described as above. A digest of the protocol:
as §1

In assay [6] the test system is S462. Described as above. A digest of the protocol:
as §1

Assay [7] deals with ST8814. The description is as above. A digest of the protocol:
as §1

The test system of assay [8] is STS26T. The description is as above. The essentials: as §1
Assay [9] deals with YST-1. The assay is described as above. The essentials:
as §1

Assay [10] concerns HS-PSS. The assay is described as follows: drug sensitivity score (DSS, CellTox-Green cytotoxicity, 72 h) (DSS (dimensionless)); higher = more cytotoxic; extreme values may be limits of the assay. The essentials:
(§2)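 For 72 h at 37 °C, MPNST cell lines and primary human Schwann cells were exposed in 384-well plates to five 10-fold compound dilutions. CellTox-Green, added before seeding at a final 1:1000 dilution, gave fluorescence from DNA released by disrupted cells. Signals were scaled to vehicle and positive-control wells, cultures failing plate quality control were left out, and four-parameter logistic fits were applied. Relative IC50 and drug sensitivity score were derived from the fits, with IC50 censored at the top concentration.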

For assay [11], the system named is HSC1 (primary human Schwann cells). The assay is described as above. A digest of the protocol: as §2
The test system of assay [12] is HSC2 (primary human Schwann cells). Described as above. The essentials: as §2
The subject of assay [13] is S1507-2. The assay is described as above. The essentials:
as §2

The test system of assay [14] is ST8814. The assay is described as above. The essentials: as §2
Assay [15] concerns STS26T. The assay is described as above. A digest of the protocol:
as §2

Assay [16] has as its system HS-PSS. The assay is described as follows: % inhibition of CellTiter-Glo viability at highest tested concentration (72 h), relative to DMSO and benzethonium chloride controls; higher = more inhibition. A digest of the protocol:
as §1

For assay [17], the system named is HS-Sch-2. Described as above. A digest of the protocol: as §1
In assay [18] the test system is HSC1 (primary human Schwann cells). The assay is described as above. The essentials:
as §1

For assay [19], the system named is HSC2 (primary human Schwann cells). The description is as above. A digest of the protocol: as §1
Assay [20] concerns S1507-2. Described as above. The essentials: as §1
The test system of assay [21] is S462. Described as above. A digest of the protocol: as §1
The subject of assay [22] is ST8814. The assay is described as above. The essentials:
as §1

Assay [23] relates to STS26T. The assay is described as above. The essentials: as §1
The subject of assay [24] is YST-1. Described as above. The essentials:
as §1

± gives the standard deviation of the averaged measurements.

Consider four compounds from the supplement of paper PMC5579334.

What is called % inhibition is the drop in the measured response relative to a control, in per cent. `CC/C(=C(\c1ccc(O)cc1)c1ccc(OCCN(C)C)cc1)c1ccccc1` [4-hydroxytamoxifen] (max concentration tested 10000 nM): the drug sensitivity score in assay [1] worked out at 6.38; in [2], 7.34; in assay [3], 5.78; in assay [4], 5.65; in assay [5], 5.41 ± 1.5; in assay [6], 3.82 ± 1.3. Besides, the drug sensitivity score in assay [7] amounted to 5.33; in assay [8], 3.45; in assay [9], 2.94; in assay [10], 3.7; in assay [11], 1.81; in assay [12], 7.53. For the same compound, the drug sensitivity score was 0.592 ± 0.84 in assay [13], 4.88 in assay [14] and 1.86 in [15]. Also, the “% inhibition” value in assay [16] turned out to be 88.4%; in assay [17] it was 93.4%; in [18], 72.5%; in assay [19], 82.5%; in [20], 55.9 ± 8.7%; in assay [21] it was 46.1 ± 9.7%. In addition, the entries for the “% inhibition” value in assay [22], in assay [23] and in assay [24] were 75.7%, 53% and 32.7%, respectively.
For the compound `O=P1(NCCCl)OCCCN1CCCl` (stereo unspecified) [Ifosfamide] (max concentration tested 10000 nM), the drug sensitivity score in [1] was 0; in [2], 0; in [3] it was 0; in [4], 0; in assay [5], 0.228 ± 0.32; in [6], 0. Also, the drug sensitivity score was 0 in assay [7]; 0 in [8]; 0.08 in assay [9]; 0 in [10]; 0 in [11]; 0 in assay [12]. Also, the drug sensitivity score in assay [13], in [14] and in [15] was 0 throughout. The “% inhibition” value in assay [16] was -0.44%; in assay [17] it was -4.64%; in assay [18], 0.661%; in assay [19], -1.49%; in assay [20], 4.66 ± 16%; in assay [21], 2.94 ± 0.79%. Moreover, the results for the “% inhibition” value in assay [22], in assay [23] and in assay [24] were 1.12%, -1.13% and 11.6%, respectively.
On to `Nc1nccc(-c2c(-c3ccc(F)cc3)ncn2C2CCCCC2)n1` (max concentration tested 10000 nM), for which the drug sensitivity score in assay [1] worked out at 0.55; in assay [2], 0.99; in assay [3], 0; in [4], 0; in assay [5], 0; in [6] it was 0. The drug sensitivity score stood at 0 in assay [7]; 0 in [8]; 3.26 in assay [9]; 0 in assay [10]; 0 in assay [11]; 0 in assay [12]. The drug sensitivity score in [13], in assay [14] and in assay [15] was 0 in each case. For the same compound, the “% inhibition” value in [16] was 21.5%; in assay [17], 29.1%; in [18], 9.97%; in assay [19], -0.333%; in assay [20] it was 2.64 ± 7.6%; in [21], -4.31 ± 12%. For the same compound, the “% inhibition” value in [22] is 5.9%; in assay [23], 1.02%; in [24], 33.7%.
Take `CCN1CCN(c2ccc(Nc3cc(N(C)C(=O)Nc4c(Cl)c(OC)cc(OC)c4Cl)ncn3)cc2)CC1` [NVP-BGJ398] (max concentration tested 1000 nM): the drug sensitivity score turned out to be 0 in [1]; 0 in assay [2]; 0 in [3]; 0 in assay [4]; 0.00445 ± 0.0063 in assay [5]; 0 in assay [6]. Besides, the drug sensitivity score was 0.135 in assay [7]; 0 in [8]; 0 in [9]; 0 in assay [10]; 0 in assay [11]; 0 in [12]. The drug sensitivity score came to 0.143 ± 0.2 in assay [13], 0 in [14] and 0 in assay [15]. The “% inhibition” value in assay [16] worked out at 9.97%; in assay [17] it was 0.34%; in assay [18], 4.11%; in [19], 5.81%; in [20], 6.59 ± 6.9%; in [21], 0.872 ± 0.61%. Moreover, the “% inhibition” value in assay [22] is 14.3%; in assay [23], -2.71%; in [24], 2.47%.
